Experimental data from article PMC3871529, “At a Supra-Physiological Concentration, Human Sexual Hormones Act as Quorum-Sensing Inhibitors” (PLoS ONE, 2013).

Assays:
[1] = test system: A. tumefaciens NT1(pZLR4) traG-lacZ reporter fusion; assay: QSI activity on A. tumefaciens AHL-bioindicator (traG-lacZ β-galactosidase); assay type: cell-based, Agrobacterium tumefaciens; details: for QSI hit in library screening: second screening: compounds at 5 µg/ml, C8-HSL 10 nM, A. tumefaciens biosensor
Description: Two bacterial QS-signal biosensors were used. Chromobacterium violaceum CV026 [41] was grown in Luria-Bertani modified (LBm) medium, in which the NaCl concentration was 5 g/l instead of 10 g/l. Agrobacterium tumefaciens NT1(pZLR4) was grown in AB minimal medium supplemented with mannitol (0.2%). After supplementation with appropriate AHL, each of the QS-biosensors expresses a reporting activity, which is the production of the pigment violacein in C. violaceum CV026 and that of β-galactosidase from the transcriptional fusion traG::lacZ in A. tumefaciens NT1(pZLR4).
When the screening was performed, the chemical library of the Institut de Chimie des Substances Naturelles (ICSN, Gif-sur-Yvette, France) contained more than 3500 synthetic and natural compounds, which were individually dissolved in dimethylsulfoxide (DMSO) at 1mg/ml and stored in 96 microwell plates. A first screening was performed by mixing biosensor CV026 with the AHL hexanoylhomoserine lactone (C6-HSL) at 0.5 µM and the tested compounds at 50 µg/ml. Final volume was adjusted to 100 µl with a synthetic medium (10% LBm and 0.4% sucrose). After 24 hours of incubation at 30°C, the presence or absence of violacein pigment was quoted by visual reading. […] Final volume was adjusted to 100 µl by the addition of AB minimal medium supplemented with mannitol (0.2%) and TY medium (10%). After 4 hours of incubation at 30°C, β-galactosidase activity was measured in A. tumefaciens cultures as previously described. In the two screenings, 4-nitropyridine-N-oxide (4-NPO) was used as a QSI reference. […]

[2] = test system: QS-regulated Ti-plasmid transfer in A. tumefaciens; assay: QS-regulated Ti-plasmid transfer (conjugation) assay; assay type: cell-based, Agrobacterium tumefaciens; details: QSI at 0.1 mg/ml, OC8-HSL 500 pM, 72 h at 24°C
Description: Figure 4 In vitro Ti plasmid transfer frequency in Agrobacterium. The Ti plasmid transfer frequencies were measured in the presence of QSI (A) and the four 1248-diastereoisomeres (B) at 0.1 mg/ml. Histograms represent the cell density of transconjugants (CFU/ml), while black diamonds and squares, those of the donor and recipient strains, respectively. Measurements were performed in quadruplicate and the experiment was repeated twice. The cell densities of transconjugants in the presence of QSI were compared to that of the control in the presence of DMSO with a Mann and Whitney test (α = 0.05). Statistically different values are noted by asterisks.
In A. tumefaciens, the transfer of the Ti-plasmid from a donor cell to a recipient one is controlled by QS. QSI were evaluated for their capacity to reduce plasmid transfer frequency in Agrobacterium. In the plasmid transfer assay, two modified Agrobacterium strains were used: a Ti-plasmid donor, which requires exogenous AHL to transfer a kanamycin-resistant (Km^r) Ti-plasmid, and a rifampicin-resistant (Rif^r) recipient strain, which is free of Ti-plasmid. Overnight cultures of the donor and recipient strains were mixed with 500 pM of oxo-octanoylhomoserine lactone (OC8-HSL) and 0.1 mg/ml of QSI in LBm medium. Each combination was repeated 4 times in microwell plates.

[3] = test system: P. aeruginosa; assay: Growth kinetics of P. aeruginosa in the presence of QSIs; assay type: cell-based, Pseudomonas aeruginosa; details: QSI at 0.5 mg/ml, OD600 and CFU at 8 and 18 hour
Description: Figure 5 QSIs modulated QS-signal accumulation in P. aeruginosa. Growth kinetics (n = 6) of P. aeruginosa was measured (OD600) in the presence of the QSIs (estradiol, estrone, estriol, hordenine and 4-NPO) at 0.5 mg/ml using DMSO as a negative control. Cell counts were assessed (CFU/ml) at 8- and 18-hour, and C4-HSL and OC12-HSL concentration (µM) were determined in the bacterial cultures at 18-hour. Statistically different values (Student's t test with α = 0.01) are noted by asterisks.
QS gene transcription in P. aeruginosa PAO1 was monitored using PAO1 strains carrying various gene promoters fused to a lacZ reporter gene, as described in Vandeputte et al., 2010 and Table 1. PAO1 reporter strains were prepared according to Vandeputte et al.. Briefly, 18-hours-old liquid cultures (50 µl) were diluted in order to obtain a starting OD600 nm comprised between 0.02 and 0.03 in fresh LB medium supplemented with 50 mM MOPS pH 7.0 (1 ml), carbenicillin (300 µg/ml) and 10 µl of the QSIs to be tested (OD were measured using a SpectraMax M2 device from Molecular Devices). Test and control QSIs were diluted in 100% DMSO (resulting after addition to the growth medium in a 1% final concentration of DMSO). Cultures were incubated for 18 hours at 37°C with agitation. After incubation, cell densities were assessed spectrophotometrically (OD600 nm) and β-galactosidase assays were performed using the substrate o-nitrophenyl-β-D-galactopyranoside as described previously, [29]. Promoterless-lacZ fusions were used as controls. AHLs were quantified as described in Vandeputte et al.. All tests were performed in quintuplicates and three biological repetitions. The statistical significance of each test was evaluated by conducting Student's t tests and two-way ANOVA combined with the Tukey post-analysis test using the GraphPad Prism software and p values≤0.01 were considered significant.

3-Hydroxy-13-methyl-6,7,8,9,11,12,13,14,15,17-decahydro-cyclopenta[a] phenanthren-16-one [Compound 729, reference compound]
QSI hit in library screening [1]: hits | IC50 ([1]; β-galactosidase activity of Agrobacterium biosensor in presence of AHL (C8-HSL 10 nM), QSI 1.5 to 100 µg/ml): 75 mg/L | effect on Ti plasmid transfer frequency (words) [2]: significantly reduce the plasmid transfer frequency by one order of magnitude | effect on Ti plasmid transfer frequency (words) ([2]; listed as estrone): decreased the frequency | effect on growth of P. aeruginosa [3]: did not affect the growth

CN(C)CCc1ccc(O)cc1 [Compound 3499, hordenine]
inhibition at 100 µg/mL ([1]; Agrobacterium tumefaciens, read-out: inhibition (%) at 100 µg/ml): 19% | QSI hit in library screening [1]: hits | effect on Ti plasmid transfer frequency (words) [2]: significantly reduce the plasmid transfer frequency by one order of magnitude | effect on Ti plasmid transfer frequency (words) ([2]; listed as hordenine): decreased the frequency | effect on growth of P. aeruginosa [3]: slightly delayed the growth

C[C@]12CC[C@@H]3c4ccc(O)cc4CC[C@H]3[C@@H]1C[C@@H](O)[C@@H]2O [Estriol, estriol]
effect on Ti plasmid transfer frequency (words) [2]: significantly reduce the plasmid transfer frequency by one order of magnitude | effect on growth of P. aeruginosa [3]: did not affect the growth
